Tests used:
[1] = test system: green foxtail; test: Laboratory soil column leaching bioassay (growth inhibition of sensitive test plants at soil depths); format: in vivo, green foxtail (setaria); wheat also sown; settings: laboratory and field experiments
Method: 1. Under laboratory and field conditions, the following bioassay column technique was used to evaluate the leaching of the herbicide using sensitive plants to the given herbicide. Briefly, the experiments have used 100×100×200 mm tin columns filled with soil. The column surface is sprayed with either the commercial formulation of the herbicide or with the organoclay formulated herbicide. The herbicide is added at the same amounts as in the field applications, i.e., 200 g of the active ingredient per 1000 m^2. Then the columns are irrigated with 50 m^3 /[…]. The water is added throughout 5 hours. The columns are left for 24 hr and then sliced along their lengths into two parts (right and left). Two plants, setaria and wheat were sown in each part in two rows and irrigated with water. The height and the weight of the plants 7 days after emergence are used as an indicator of the presence of herbicide at different depths in the soil column.
Alachlor was applied at 2.0 kg/ha followed by irrigation of 500 m^3 /ha. bars indicate standard errors.
Green foxtail growth was used to estimate the presence of matolachlor. Metolachlor formulations were commercial formulation (comm.); metolachlor on clay alone (Mont); metolachlor on clay pre-absorbed with BTMA 0.5 mole/kg clay. The clay based formulations contained 13% metolachlor. […] Bars indicate standard errors.
Green foxtail growth was used to estimate the presence of matolachlor. Metolachlor formulations were commercial formulation (comm.); metolachlor on clay pre-absorbed with PTMA 0.5 mole/kg clay. The clay based formulations contained 13% metolachlor. […] Bars indicate standard errors.

[2] = Adsorption isotherms of herbicide on montmorillonite pre-adsorbed by organic cations; format: physicochemical; settings: for adsorption on montmorillonite pre adsorbed by organic cations: FIGS. 1A and 1B
Method: A suitable concentrated solution of the organic cation is added dropwise to a 0.5 or 1% W/W of clay suspension (e.g. Montmorillonite; Sepiolite; Palygorskite; Pillared clays). After separation of the supernatant, the organoclay complex is dried and ground to less than 50 μm. The herbicide is dissolved in a suitable volatile organic solvent e.g. hexane, dichloro methane, acetone, and mixed with the solid organoclay in weight relations of 5-20 g of herbicide to 95-80 g organoclay. The organic solvent is evaporated under gentle reduced pressure and continuous mixing and the resulting herbicide-organoclay complex is ground to less than 50 μm. The pesticide formulation can be further improved by adding water or another solvent to the dried material; removing the loosely bound pesticide, and drying again.
BTMS 0.8 mole/kg, BTEA 0.8 mole/kg, BTEA 0.5 mole/kg or HDTMA 0.5 mole/kg clay. Bars indicate standard errors.

SMILES	inhibition of movement / leaching of the herbicide in the soil profile [1]	adsorption on montmorillonite pre adsorbed by organic cations [2]	adsorption on montmorillonite preadsorbed by PTMA ([2]; PTMA 0.5 mmol/g clay)
CCCC[N+](CCCC)(CCCC)Cc1ccccc1.[Cl-] [BTBA, benzyl tributyl ammonium chloride]	significant inhibition of herbicide leaching has been achieved		
CC[N+](CC)(CC)Cc1ccccc1.[Br-] [BTEA, benzyltriethyl ammonium bromide]	significant inhibition of herbicide leaching has been achieved		
C[N+](C)(C)Cc1ccccc1.[Cl-] [BTMA, benzyltrimethyl ammonium chloride]	significant inhibition of herbicide leaching has been achieved		
CCOCN(C(=O)CCl)c1c(C)cccc1CC [acetochlor]	The same trend was also found	enhanced adsorption	Enhanced adsorption
CCc1cccc(CC)c1N(COC)C(=O)CCl [alachlor]		enhanced adsorption	
CNc1cnn(-c2cccc(C(F)(F)F)c2)c(=O)c1Cl [norflurazon]	The same trend was also found		

Reference: US6261997A, “Slow release formulations of pesticides” (Yissum Research Development Company of the Hebrew …, priority 1996, dated 2001)
